From the supplement of paper PMC10307832

Legend:
Assay in all cases: relative viability (nuclei count vs DMSO), 5 days (fraction); higher = more cells survive
[1] = compound: OCc1c[nH]c2ccccc12 [Indole-3-carbinol] + O=C(CCCCCCC(=O)Nc1ccccc1)NO [Vorinostat] (partner 1 µM)
Summary of the method: (§1)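 Relative viability equals treated-well nuclei counts divided by vehicle-well nuclei counts. Counts came from 4× images of lung cancer cell lines grown in 1536-well plates for 5 days after pin-tool dosing on the day after seeding. Dosing used one drug alone or a fixed anchor-drug dose plus five library-drug doses (not always all listed) in √10 steps, and values are medians of duplicate plates.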

[2] = compound: OCc1c[nH]c2ccccc12 [Indole-3-carbinol] + CC(C)C[C@H](NC(=O)[C@H](Cc1ccccc1)NC(=O)c1cnccn1)B(O)O [Bortezomib] (partner 0.002 µM)
Summary of the method: as §1

[3] = compound: OCc1c[nH]c2ccccc12 [Indole-3-carbinol] + CCNC(=O)c1noc(-c2cc(C(C)C)c(O)cc2O)c1-c1ccc(CN2CCOCC2)cc1 [Luminespib] (partner 0.01 µM)
Summary of the method: as §1

[4] = compound: OCc1c[nH]c2ccccc12 [Indole-3-carbinol] + COc1cc2c(Oc3ccc(NC(=O)C4(C(=O)Nc5ccc(F)cc5)CC4)cc3F)ccnc2cc1OCCCN1CCOCC1 [Foretinib] (partner 0.25 µM)
Summary of the method: as §1

[5] = compound: OCc1c[nH]c2ccccc12 [Indole-3-carbinol] + Cc1cc(Nc2cc(N3CCN(C)CC3)nc(Sc3ccc(NC(=O)C4CC4)cc3)n2)n[nH]1 [Tozasertib] (partner 0.1 µM)
Summary of the method: as §1

| Cell Line | relative viability ([1]; first compound 0.253 µM) | relative viability ([1]; first compound 0.8 µM) | relative viability ([1]; first compound 2.53 µM) | relative viability ([1]; first compound 8 µM) | relative viability ([2]; first compound 0.253 µM) | relative viability ([2]; first compound 0.8 µM) | relative viability ([2]; first compound 2.53 µM) | relative viability ([2]; first compound 8 µM) | relative viability ([3]; first compound 0.253 µM) | relative viability ([3]; first compound 0.8 µM) | relative viability ([3]; first compound 2.53 µM) | relative viability ([3]; first compound 8 µM) | relative viability ([4]; first compound 0.253 µM) | relative viability ([4]; first compound 0.8 µM) | relative viability ([4]; first compound 2.53 µM) | relative viability ([4]; first compound 8 µM) | relative viability ([5]; first compound 0.253 µM) | relative viability ([5]; first compound 0.8 µM) | relative viability ([5]; first compound 2.53 µM) | relative viability ([5]; first compound 8 µM) |
| --- | --- | --- | --- | --- | --- | --- | --- | --- | --- | --- | --- | --- | --- | --- | --- | --- | --- | --- | --- | --- |
| PC-14 | 0.665 | 0.594 | 0.724 | 0.649 | 0.878 | 0.971 | 0.85 | 0.874 | 0.218 | 0.143 | 0.24 | 0.191 | 0.961 | 0.842 | 0.987 | 0.913 | 0.578 | 0.585 | 0.633 | 0.554 |
| RERF-LC-KJ | 0.687 | 0.622 | 0.656 | 0.726 | 1.19 | 1.08 | 1.13 | 1.04 | 1.25 | 1.18 | 1.23 | 1.11 | 0.873 | 0.932 | 0.815 | 0.819 | 0.441 | 0.518 | 0.546 | 0.509 |
| SK-LU-1 | 0.795 | 0.865 | 0.757 | 0.839 | 1.32 | 1.03 | 1.35 | 0.987 | 0.214 | 0.228 | 0.211 | 0.203 | 0.851 | 0.836 | 0.911 | 0.763 | 0.303 | 0.356 | 0.367 | 0.302 |
| SW 1573 | 0.764 | 0.731 | 1.05 | 0.76 | 1.15 | 1.18 | 1.12 | 0.997 | 0.183 | 0.248 | 0.303 | 0.138 | 1.12 | 1.04 | 1.02 | 0.812 | 0.187 | 0.233 | 0.135 | 0.176 |
| UMC-11 | 0.332 | 0.377 | 0.432 | 0.398 | 0.748 | 0.726 | 0.757 | 0.904 | 1.01 | 0.953 | 1.04 | 1.01 | 0.914 | 1.1 | 1.05 | 1.09 | 0.196 | 0.202 | 0.187 | 0.204 |
